Results on 81 compounds are retold here after the METLIN SMRT retention time set (Domingo-Almenara et al. 2019).

The nature of this data set: gradient 5% acetonitrile 3 min, to 50% in 2 min, to 85% in 15 min, held 3 min, 100 µL/min. The note with it: column: Zorbax Extend-C18 2.1 x 50 mm; eluents: water / acetonitrile, 0.1% formic acid. Summed up: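 Retention time was recorded from adduct peaks, which were picked computationally and each inspected manually. Pure standards ran in mixtures of ~100 molecules on HPLC coupled to a quadrupole time-of-flight mass spectrometer, in positive and negative ionization mode, through a Zorbax Extend-C18 column (2.1 × 50 mm, 1.8 μm) at 100 μL/min. Eluents were water and acetonitrile, each with 0.1% formic acid.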
The compound `CCn1ncc(N2CCCC(CC(=O)N3CCSCC3)C2)cc1=O` (stereo unspecified) gave an RP-LC retention time of 684 s.

Take `O=C(Cn1c(=O)c2cccn2c2ccc(F)cc21)NCc1ccc(F)cc1`: the RP-LC retention time came out at 818 s. As to `CC(C)Cn1cc(CCNC(=O)Nc2ccc(Br)cc2F)c2cccnc21`, the RP-LC retention time is 975 s. To `CCN1CCN(CCCNC(=O)C2Cn3cccc3C(=O)N2CC(C)C)CC1` (stereo unspecified) belongs 558 s.

Regarding `Cc1ccc(-c2noc(Cn3ncn4nc(-c5ccc(Br)cc5)cc4c3=O)n2)cc1`, the RP-LC retention time came to 1280 s. To `Cc1c(C(=O)O)nnn1-c1ccc(C(F)(F)F)cc1` belongs 730 s; to `CSc1ccc(CNC(=O)C2CCCN(c3nc4c(s3)c(C)nn4-c3ccccc3)C2)cc1` (stereo unspecified), 1150 s; to `CN(C)c1ccc(/C=C/c2ccc3ccccc3n2)cc1`, 785 s. To `CN1C(=O)CCc2cc(NS(=O)(=O)c3ccc(Br)cc3)ccc21` belongs 810 s; to `COc1ccc(-c2cn3nc(N4CCCC(C(=O)N5CCCC5)C4)sc3n2)cc1` (stereo unspecified), 981 s; to `CC(C)CN1C(=O)c2ccccc2C(C(=O)NCCN2CCN(C)CC2)C1c1cccs1` (stereo unspecified), 617 s. To `Cc1ccc(-c2cn3c(CC(=O)Nc4ccc(C)c(F)c4)csc3n2)cc1C` belongs 933 s. Consider `CC1(C(=O)NCc2ccccc2)CN(S(C)(=O)=O)CC(=O)N1c1ccc(F)cc1` (stereo unspecified), for which the RP-LC retention time was found to be 750 s. `Cc1ccccc1NC(=O)N(C)CC1CCOCC1` returned an RP-LC retention time of 726 s. To `Cc1ccc(-n2ncc3c(N4CCN(C)CC4)ncnc32)cc1Cl` belongs 607 s; to `O=C(Cc1ccccc1)N1CCN(c2cc(-c3cccs3)[nH]n2)CC1`, 765 s. To `Cc1cc(-c2nnc(-c3ccccc3)o2)c(C)n1CC(=O)NCc1ccco1` belongs 826 s; to `O=c1ccc(-c2ccc3c(c2)OCO3)nn1Cc1nc(-c2ccccc2)no1`, 939 s. To `O=C(O)c1cnc(-c2ccccc2)nc1-c1ccncc1` belongs 653 s; to `COc1ccc2sc(NCc3cccnc3)nc2c1`, 556 s. Regarding `Cc1ccccc1-c1nc2cnccn2c1NCCC(=O)NCc1ccccc1`, the RP-LC retention time is 669 s.

`Cn1c(=O)c2cc(C(=O)Nc3ccc(F)c(F)c3)cnc2n(-c2ccccc2)c1=O` gave an RP-LC retention time of 937 s.

For the compound `O=C(NCCN1CCCCCC1)C1CCN(c2cnn(Cc3ccccc3)c(=O)c2)CC1`, the RP-LC retention time came to 614 s.

As to `CCOc1ccccc1NC(=O)C1CCN(S(=O)(=O)c2cc(-c3noc(C)n3)sc2C)CC1`, the RP-LC retention time stood at 1010 s.

On to `Cc1ccc(C)c(NS(=O)(=O)c2cc(-c3nc(C(C)(C)C)cs3)cs2)c1`, for which the RP-LC retention time was found to be 1310 s. To `Cc1nc2ccn(Cc3cccnc3)c(=O)c2cc1C(=O)NCCCc1ccco1` belongs 625 s. To `COc1ccc(CN2C=C(C(=O)OCc3nc(C4CC4)no3)C(C)=NS2(=O)=O)cc1` belongs 972 s. `CCc1nc2ccc(-c3noc(-c4cccc(C#N)c4)n3)cc2n1CC`: the RP-LC retention time was found to be 710 s.

Turning to `CC(=O)N1CCN(Cc2nc(-c3ccc(N4CCSCC4)nc3)no2)CC1`, the RP-LC retention time turned out to be 669 s. To `CC1CCN(C(=O)c2nc3ccccn3c2-c2ccsc2)CC1` belongs 711 s; to `CC(=O)c1ccc(S(=O)(=O)N2CCC(CN3CCCC(C)C3)CC2)cc1` (stereo unspecified), 634 s.

`CCOc1ccc(-c2noc(CN3C(=O)COc4cc(Cl)ccc43)n2)cc1OC`: the RP-LC retention time was determined as 1080 s. To `CCn1cc(C)c(C(=O)O)c1CC(=O)NCCN1CCc2ccccc2C1` belongs 629 s; to `O=C(C1=C2CCCN2c2ccccc2S1(=O)=O)N1CCN(c2ccc(F)cc2)CC1`, 796 s. Turning to `CCCCNC(=O)C(C)n1nc(C)c2c(C)n(-c3ccccc3)nc2c1=O` (stereo unspecified), the RP-LC retention time turned out to be 787 s. To `O=C(Nc1cc(F)ccc1Cl)c1cnc(-c2ccccc2)nc1-c1ccncc1` belongs 1000 s. In the case of `O=C(c1ccc(F)c(F)c1)N1CCC(n2c(-c3ccco3)nc3cccnc32)C1` (stereo unspecified), the RP-LC retention time worked out at 776 s. To `CCN(Cc1ccccc1)C(=O)C1CCCN(S(=O)(=O)c2ccc3c(c2)CCCC(=O)N3)C1` (stereo unspecified) belongs 821 s; to `COCC1CCN(C(=O)NCc2cccc3ccccc23)CC1`, 769 s; to `O=C(Nc1cnn(-c2ncncc2N2CCCC2)c1)c1cccc(C(F)(F)F)c1`, 797 s. In the case of `O=C1NCCOCCCN(C(=O)Nc2ccccc2)[C@H]2CCC[C@@H]12`, the RP-LC retention time amounted to 741 s. For the compound `Cc1nn(-c2cc(N3CCCC3)ncn2)c(C)c1CCC(=O)N1CCN(c2ccccn2)CC1`, the RP-LC retention time was found to be 587 s. To `O=C1C(=O)N(C2CCN(C(=O)c3ccc(Br)o3)CC2)CCN1Cc1ccccc1` belongs 706 s. To `CC1(C)C(=O)NCCN1C(=O)c1cccc(Br)c1` belongs 649 s; to `COC(=O)c1cnc2nc(C)ccc2c1NCc1ccccc1`, 658 s; to `O=C(NC1CC1)C1CCCN(c2ncnc3c2oc2ccccc23)C1` (stereo unspecified), 632 s. To `CS(=O)(=O)Nc1ccc(-c2noc(-c3cnccn3)n2)cc1` belongs 686 s; to `CCc1nc(-c2ccc(-c3noc(COc4ccc(F)cc4)n3)cc2)cs1`, 1310 s.

In the case of `O=C(Nc1cccc([N+](=O)[O-])c1)C1(c2cccs2)CCOCC1`, the RP-LC retention time amounted to 558 s.

For `COc1cc(C)c(C)cc1S(=O)(=O)Nc1ccc(Cl)c(N2CCCS2(=O)=O)c1`, the RP-LC retention time is 1080 s. To `COCC(=O)N1CCCn2nc(-c3ccccc3)cc2C1` belongs 669 s; to `N#Cc1cccc(S(=O)(=O)N2CCC(c3cc(N)on3)CC2)c1`, 743 s. To `Cc1cc(C(=O)N2CCC3(CC2)CC(O)CCO3)c(C)o1` (stereo unspecified) belongs 624 s; to `CCn1cc(C)c(C(=O)O)c1CC(=O)Nc1ccc2c(c1)OCCO2`, 762 s; to `Cc1csc(-c2csc(S(=O)(=O)N3CCCCCC3)c2)n1`, 1090 s. To `Cc1nn(C)c2c(=O)n(CC(=O)NCc3ccc(Br)cc3)ccc12` belongs 745 s; to `CCS(=O)(=O)N1CC(=O)N(c2cccc(C)c2C)C(C)(C(=O)NCc2ccc(F)cc2)C1` (stereo unspecified), 848 s; to `CCc1cccc(NS(=O)(=O)c2c[nH]c3ncccc23)c1`, 762 s. With `CCCN1CCCCc2cc(C(=O)NC(C)CC)sc21` (stereo unspecified), the RP-LC retention time turned out to be 1100 s. To `Cc1c(S(=O)(=O)NCc2ccccc2Cl)c(C)n(C)c1-c1nnc(C2CCC2)o1` belongs 1000 s.

`Cc1ccc2c(Nc3ccc(C)c(C)c3)c(C(=O)N3CCCC(C)C3)cnc2n1` (stereo unspecified) came in with an RP-LC retention time of 681 s. To `Cc1nn2c(CNC(=O)C3CCN(C(=O)c4ccccc4)CC3)c(C)nc2s1` belongs 584 s. As for `CN(C(=O)Cc1ccc(Cl)c(Cl)c1)[C@@H](CN1CCCC1)c1ccccc1`, the RP-LC retention time was found to be 718 s. To `O=C(NC1CC1)c1ccccc1OCC1CCN(C(=O)c2ccc(F)cc2)CC1` belongs 805 s; to `CCC(=O)N1CCc2c(sc3ncnc(N4CCCC4)c23)C1`, 641 s. To `C#CCSc1nc2sc(C)c(C)c2c(=O)n1C` belongs 983 s; to `Cc1ccc(-c2ncccc2CNS(=O)(=O)c2ccc(C#N)cc2)cc1`, 688 s; to `CCN(Cc1ccccc1)C(=O)c1cn(-c2cc(N3CCC(C)CC3)ncn2)cn1`, 1120 s.

Turning to `Cc1ccc(CNC(=O)C2CCCN(S(=O)(=O)c3c[nH]c(C(=O)N4CCCCCC4)c3)C2)cc1` (stereo unspecified), the RP-LC retention time is 883 s.

The compound `CCN1CCCn2cc(S(=O)(=O)N3CCN(c4ccccc4F)CC3)cc2C1=O` had an RP-LC retention time of 829 s. Regarding `Cc1nccn1-c1ccc(N2CCN(C(=O)c3cc4ccccc4o3)CC2)nn1`, the RP-LC retention time worked out at 560 s. To `O=C(Nc1ccc(N2CCOCC2)cc1)C1=CCN(Cc2ccc(F)cc2)CC1` belongs 603 s; to `COc1ccccc1NC(=O)C(=O)c1cn(CC(=O)N2CCCC2)c2ccccc12`, 1130 s. In turn, `CCCC(=O)Nc1ccc(CCc2nc3ccc(C(=O)NC4CC4)cc3[nH]2)cc1` had an RP-LC retention time of 599 s. To `CCCCN(CC)Cc1ccc(CNC(=O)C2CCCN(c3nnc(N4CCCC4=O)s3)C2)o1` (stereo unspecified) belongs 611 s. To `Cc1cc(C)cc(NC(=O)C2CCN(S(C)(=O)=O)c3cc(C)ccc3O2)c1` (stereo unspecified) belongs 900 s; to `OC(COc1ccc(Cl)cc1)CN1CCN(c2cccc(Cl)c2)CC1` (stereo unspecified), 866 s.

`COc1ccc(S(=O)(=O)N2CCCC(C(N)=O)C2)cc1OC` (stereo unspecified): the RP-LC retention time came out at 640 s. To `C=CCN1CC(c2nc3ccccc3n2Cc2c(F)cccc2Cl)CC1=O` (stereo unspecified) belongs 688 s; to `CCn1c(C(=O)Nc2cccc(C)n2)cc2c(=O)oc3ccccc3c21`, 891 s; to `CCN(C(=O)C1CCCN(c2ncnc3c2nc2n3CCCCC2)C1)c1cccc(C)c1` (stereo unspecified), 903 s.
